# Results: patent US20230014226A1, “NEW COMPOUNDS AND METHODS” (BenevolentAI Bio Limited, priority 2019, published 2023)
# Entries after “also recorded” stand apart in the source; their conditions may differ.
# Key:
# [1] = test system: HUVEC; experiment: HUVEC Cell Viability (CV) assay; assay type: cell-based, human; conditions: Homo sapiens, alamarBlue
# Method: Cells are seeded at 10,000 cells/well in 96-well plates in HUVEC specific cell culture media. Cells are plated and cultured overnight (16-24 h) at 37° C. After the overnight culture, cells are washed and fed with the Assay Medium. Test compounds are applied and incubated with the cells for the designated time period, after which the cell viability is measured by alamarBlue method. […] The final DMSO concentration is 1%.
# Fluorescence readings are recorded after the test compound and alamarBlue incubation. The excitation and emission wavelengths are 530 nm and 590 nm, respectively.
# The percent of control is calculated by comparing the readings in the presence of the test compound to the vehicle control. Subsequently, the percent inhibition is calculated by subtracting the percent control activity from 100. IC50 values (concentration causing a half-maximal inhibition of the control value) are determined by non-linear regression analysis of the concentration-response curves using the Hill equation.
# The reference compound used for this assay is Staurosporine.
# [2] = target: T1, recombinant human P450 enzyme 1A1 (Homo sapiens, UniProt P04798); experiment: Formation of reactive metabolites (glutathione adduct) by CYP1A1 with human liver cytosol; assay type: in vitro ADME; conditions: human liver cytosol + recombinant CYP1A1, NADPH and GSH
# T1 construct: host or cells: Bacterial membranes (bactosomes), inferred from the named control preparation
# T1 sequence (P04798 1-512): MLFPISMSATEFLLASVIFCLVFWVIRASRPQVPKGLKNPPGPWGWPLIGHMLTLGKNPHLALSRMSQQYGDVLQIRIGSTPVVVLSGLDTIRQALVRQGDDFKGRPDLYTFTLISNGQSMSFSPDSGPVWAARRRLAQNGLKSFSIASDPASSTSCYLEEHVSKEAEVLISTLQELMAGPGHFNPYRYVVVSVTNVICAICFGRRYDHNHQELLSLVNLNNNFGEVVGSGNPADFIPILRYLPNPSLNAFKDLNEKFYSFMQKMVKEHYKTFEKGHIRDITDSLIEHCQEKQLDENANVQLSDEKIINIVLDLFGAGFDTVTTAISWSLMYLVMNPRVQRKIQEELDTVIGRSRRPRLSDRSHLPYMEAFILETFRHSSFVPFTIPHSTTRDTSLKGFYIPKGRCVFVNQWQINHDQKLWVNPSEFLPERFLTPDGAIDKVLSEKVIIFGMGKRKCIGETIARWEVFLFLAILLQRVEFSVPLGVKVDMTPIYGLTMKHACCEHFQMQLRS
# Method: Investigations into the potential for test compound to form a reactive metabolite were performed using an adapted method detailed by De Lin et al. Briefly, test compound was pre-incubated (n=2; 50 μM substrate concentration) at 37° C. for 5 min with mixed-gender human liver cytosol (1 mg/mL total protein concentration) in 100 mM phosphate buffer (pH 7.4) with 5 mM MgCl2 in the presence of recombinant human P450 enzyme 1A1 (100 nM), in the presence and absence of 5 mM glutathione. At the end of the pre-incubation period, 2 mM NADPH was added to each sample and the mixture incubated at 37° C. for 60 min. Immediately following the addition of NADPH and after the 60 min incubation period, aliquots of each sample were mixed with MeCN (containing internal standard) to terminate the reaction and precipitate the proteins.
# Samples were mixed, centrifuged and following appropriate dilution, supernatants were analysed by LC-MS utilising a high-resolution mass spectrometer to perform metabolite identification and characterisation analysis.
compound,measurement,setting,value
"Cc1ccc(C(=O)Nc2cn(C(C)C)cn2)cc1C#Cc1cccnc1 [Example 25, N-(1-isopropylimidazol-4-yl)-4-methyl-3-[2-(3-pyridyl)ethynyl]benzamide]",IC50,[1],45 µM
same,formation of direct glutathione adduct,"[2]; 50 μM, 60 min",does not form a glutathione adduct; also recorded: no products of direct glutathione conjugation were observed
same,metabolites identified as products of oxidation and glutathione conjugation,[2],Two very minor metabolites
